Where a name gives a salt, the structure may show the parent alone.
How the values were obtained:
[1] = molecular target: GABA receptor complex (GRC); test: [35S]TBPS binding in rat cerebral cortex P2 homogenate; conditions: for IC50: concentration to inhibit 50% of control [35S]TBPS binding, 2 nM [35S]TBPS; for IMAX (maximum inhibition): maximum inhibition of [35S]TBPS binding
From the text: To those skilled in the art, it is known that the modulation of [^35S]t-butylbicyclophosphorothionate ([^35S]TBPS) binding is a measure of the potency and efficacy of drugs acting at the GRC, which drugs may be of potential therapeutic value in the treatment of stress, anxiety, and seizure disorders (Squires, R. F., et al., Mol, Pharmacol., 23:326 (1983); Lawrence, L. J., et al., Biochem. Biophys. Res. Comm., 123:1130-1137 (1984); Wood, et al., Pharmacol, Exp. Ther., 231:572-576 (1984)). Several experiments were performed previously to determine the nature of the modulation of [^35S]TBPS as affected by neuroactive steroids. […] Furthermore, these compounds have high potency and efficacy at the GRC, with stringent structural requirements for such activity.
The procedures for performing this assay are fully discussed in: (1) Gee, K. W. et al., European Journal of Pharmacology, 136:419-423 (1987)); and (2) Gee, et al., Molecular Pharmacology 30:218 (1986). These procedures were performed as follows:
Brains from male Sprague-Dawley rats were removed immediately following sacrifice and the cerebral cortices dissected over ice. A P2 homogenate was prepared as previously described (Gee, et al., Molecular Pharmacology 30:218 (1986)). Briefly, the cortices were gently homogenized in 032 M sucrose followed by centrifugation at 1000×g for 10 minutes. The supernatant was collected and centrifuged at 9000×g for 20 minutes. The resultant P2 pellet was suspended as a 10% (original wet weight/volume) suspension in 50 mM Na/K phosphate buffer (pH 7.4) 200 mM NaCl to form the homogenate.
One hundred microliter […] aliquots of the P2 homogenate (0.5 milligrams (mg) protein) were incubated with 2 nanomolar (nM) [^35S]TBPS (70-110 curies/millimole; New England Nuclear, Boston, Mass.) in the presence or absence of the naturally occurring steroids or their synthetic derivatives to be tested. The tested compounds were dissolved in dimethylsulfoxide (Baker Chem. Co., Phillipsburg, N.J.) and added to the incubation mixture in 5 μL aliquots. The incubation mixture was brought to a final volume of 1 mL with buffer. Non-specific binding was defined as binding in the presence of […]. The effect and specificity of GABA (Sigma Chem. Co., St. Louis, Mo.) was evaluated by performing all assays in the presence of GABA plus (+)bicuculline (Sigma Chem. Co.). Incubations maintained at 25° C. for 90 minutes (steady state conditions) were terminated by rapid filtration through glass fiber filters (No. 32, Schleicher and Schuell, Keene, N.H.). Filter-bound radioactivity was quantitated by liquid scintillation spectrophotometry. Kinetic data and compound/[^35S]TBPS dose-response curves were analyzed by nonlinear regression using a computerized iterative procedure to obtain rate constants and IC50 (concentration of compound at which half-maximal inhibition of basal [^35S]TBPS binding occurs) values.
Various compounds were screened to determine their potential as modulators of [^35S]TBPS binding in vitro. These assays were performed in accordance with the above discussed procedures. Based on these assays, we have established the structure-activity requirements for their specific interaction at the GRC and their rank order potency and efficacy. Experimental data obtained in this assay for a number of 3α-hydroxypregnan-20-one derivatives is discussed in Gee, K. W. et al., European Journal of Pharmacology, 136:419-423 (1987) and in U.S. Pat. No. 5,232,917. Table 1 provides IC50 and maximum inhibition (IMAX) measurements for numerous compounds, including examples of compounds disclosed and claimed herein. IC50 is defined as concentration of compounds to inhibit 50% of control [^35S]TBPS binding. It is an indication of a compound's in vitro potency. Maximum inhibition is an indication of a compound's in vitro efficacy.

[2] = tested on: metrazol induced convulsions; test: Antimetrazol activity in mice; format: in vivo; conditions: IP
Method: Experiments were also performed to determine the physiological relevance of neuroactive steroid and GABA receptor interactions by assessing the ability of compounds of the present invention to prevent metrazol induced convulsions in mice. Mice were injected with various doses of the test compounds of the invention, 10 minutes prior to the injection of metrazol. The time to onset of myoclonus (presence of forelimb clonic activity) induced by metrazol was determined by observing each mouse for a period of 30 minutes. In control mice, metrazol (85 mg/kg) will induce convulsion in 95% of the animals.
The anticonvulsant tests are similar to that described above.

[3] = tested on: time spent on the open-arms; test: Elevated plus-maze test; format: in vivo, N.I.H. Swiss-Webster mice
From the text: The theoretical basis for the elevated plus-maze test is similar to that of the fight/dark transition test. As it was described previously by Pellow et al. J. Neurosci. Meth. 14:149-167 (1985)), the elevated plus-maze apparatus is designed to utilize the mice's natural aversion to open spaces. The apparatus consists of two open-arms and two enclosed-arms. The elevated plus-maze test allows for two measures of anxiety, the number of entries into the open-arms and the time spent on the open-arms, both expressed as a percentage of the total number of entries and time spent in/on both the open-arms and enclosed-arms.
Male N.I.H Swiss-Webster mice (Harlan, Indianapolis, Ind.) weighing 15-20 g were housed four per cage in polyethylene cages with sawdust bedding. The colony room was environmentally controlled (22° C.) with a 12 hr light/dark cycle (0600-1800 hr). Food and water were available ad libitum, except during testing. The experiments were run from 0700-1500 hr and groups were counterbalanced for time of day effects. Mice were only administered drug or vehicle once.
The method used was previously described (Lister, Psychopharmacol. 92:180-185 (1987)). The apparatus included two open arms perpendicular to two enclosed arms elevated 50 cm from the floor. Each arm was 50 cm long and the walls of the enclosed arms were 40 cm tall. The maze was made completely of black plexiglass. Incandescent 200 W light bulbs were above each of the open arms to produce a strong contrast between the open arms and the enclosed arms.
[…] Swiss-Webster mice were placed in the center of the plus-maze facing an open arm. During the 5 min test period, the number of entries onto the open arms and the enclosed arms, and the time spent in the open arms and enclosed arms were measured. All four paws had to be within an arm for the dependent variable to be measured. Therefore, the time spent in the center of the maze is not counted, so the total time spent in the open arms and the enclosed arms may not equal 5 min.

[4] = 50% hpbcd, 10 mg/kg, 10 min before metrazol 85 mg/kg

Structure (SMILES)	melting point [°C]	IC50 [1] [nM]	IMAX (maximum inhibition) [1] [%]	% Protected [2, 4] [%]	Plus-Maze (% Control), time spent on the open-arms ([3]; IP, 50% hpbcd, 10 mg/kg) [% Control]	further results
CO[C@H]1CC[C@H]2[C@@H]3CC[C@@H]4C[C@H](OC(=O)C(C)C)CC[C@]4(C)[C@H]3CC[C@]12C	82 to 87					
C[C@@]1(O)CC[C@@]2(C)[C@@H](CC[C@@H]3[C@@H]2CC[C@]2(C)[C@@H](C(=O)COc4ccc([N+](=O)[O-])cc4)CC[C@@H]32)C1	169 to 172					
C#CCC1(O)CCC2(C)C(CCC3C2CCC2(C)C(OC)CCC32)C1 (stereo not drawn) [3α-Hydroxy-17β-methoxy-3β-(2-propynyl)-5α-androstane]		387	101	12.5		
CC12CCC(O)CC1CCC1C2CCC2(C)C(C(=O)CSc3ncc[nH]3)CCC12 (stereo not drawn) [3α-Hydroxy-21-(imidazo-2-ylthio)-5β-pregnan-20-one]		184	80	6.25	166	
C[C@]12CC[C@@H](O)C[C@H]1CC[C@@H]1[C@@H]2CC[C@]2(C)[C@@H](C(=O)CSc3ccccn3)CC[C@@H]12 [3α-Hydroxy-21-(pyrid-2-ylthio)-5β-pregnan-20-one]		90	66			Plus-Maze (% Control), time spent on the open-arms ([3]; IP, 50% hpbcd, 20 mg/kg): 187 % Control; % Protected ([2]; 50% hpbcd, 20 mg/kg): 12.5%
C[C@]12CC[C@@H](O)C[C@H]1CC[C@@H]1[C@@H]2CC[C@]2(C)[C@@H](C(=O)C[S+]([O-])c3ccncc3)CC[C@@H]12 (stereo partly drawn) [3α-Hydroxy-21-(pyrid-4-ylsulfinyl)-5β-pregnan-20-one]		235	73	25	171	
C[C@]12CC[C@@H](O)C[C@H]1CC[C@@H]1[C@@H]2CC[C@]2(C)[C@@H](C(=O)COc3cccnc3)CC[C@@H]12 [3α-hydroxy-21-(pyrid-3-yl)oxy-5β-pregnan-20-one]	63 to 66	76	76			
C[C@]12CC[C@@H](O)C[C@H]1CC[C@@H]1[C@@H]2CC[C@]2(C)[C@@H](C(=O)CSc3ccncc3)CC[C@@H]12 [3α-hydroxy-21-(pyrid-4-ylthio)-5β-pregnan-20-one]		59	74	75	151	
COC1CCC2C3CCC4CC(O)(C#CCCO)CCC4(C)C3CCC12C (stereo not drawn) [3β-(4′-Hydroxybutyn-1′-yl)-3α-hydroxy-17β-methoxy-5α-androst] [3β-(4′-Hydroxy-1-′-butynyl)-3α-hydroxy-17β-methoxy-5α-androstane]		47	104		158	
COC1CCC2C3CCC4CC(O)(C#CCCO)CCC4(C)C3CCC12C (stereo not drawn) [3β-(4′-Hydroxybutyn-1′yl)-3α-hydroxy-17β-methoxy-5β-androsta] [3β-(4′-Hydroxy-1-′-butynyl)-3α-hydroxy-17β-methoxy-5β-androstane]		26	105			% Protected ([2]; 50% hpbcd, 10 mg/kg, 10 min before metrazol 85 mg/kg, listed as 3α-Hydroxy-3β-(4′-hydroxybutyn-1-yl)-17β-methoxy-5β-androstane): 75%
COC1CCC2C3CCC4CC(O)(C#CCCOC(=O)CCC(=O)O)CCC4(C)C3CCC12C (stereo not drawn) [3β-(4′-hydroxy-1′-butynyl)-3α-hydroxy-17β-methoxy-5β-androstane 4′-hemisuccinate sodium salt]		108	100			Plus-Maze (% Control), time spent on the open-arms ([3]; PO, water, 10 mg/kg): 309 % Control; % Protected ([2]; water, 10 mg/kg): 75%
COC1CCC2C3CCC4CC(O)(CCl)CCC4(C)C3CCC12C (stereo not drawn) [3β-Chloromethyl-3α-hydroxy-17β-methoxy-5α-androstane]		361	98	12.5		
C=C[C@@]1(O)CC[C@@]2(C)[C@@H](CC[C@@H]3[C@@H]2CC[C@]2(C)[C@@H](OC)CC[C@@H]32)C1 [3β-Ethenyl-3α-hydroxy-17β-methoxy-5α-androstane]		133	104		127	
C#C[C@@]1(O)CC[C@@]2(C)[C@@H](CC[C@@H]3[C@@H]2CC[C@]2(C)[C@@H](OC)CC[C@@H]32)C1 [3β-Ethynyl-3α-hydroxy-17β-methoxy-5α-androstane]		122	106		129	
C#CC1(O)CCC2(C)C(CCC3C2CCC2(C)C(C(=O)CSCCS(=O)(=O)O)CCC32)C1 (stereo not drawn) [3β-ethynyl-3α-hydroxy-21-thioethanesulfonate-5β-pregnan-20-one sodium salt]		607	93	0	127	
C[C@]12CC[C@@H](O)C[C@@H]1CC[C@@H]1[C@@H]2CC[C@]2(C)[C@@H](OCCO)CC[C@@H]12 [17β-(2-Hydroxyethoxy)-3α-hydroxy-5α-androstane]	181 to 183	534	99			
CC(=O)c1ccc(C#CCO[C@H]2CC[C@H]3[C@@H]4CC[C@H]5C[C@](C)(O)CC[C@]5(C)[C@H]4CC[C@]23C)cc1 [17β-[3-(4-Acetylphenyl)-2-propynyloxy]-3α-hydroxy-3β-methyl-5α-androstane]	52 to 55	316	95			
COCC1(O)CCC2(C)C(CCC3C2CCC2(C)C(C(=O)CSc4ccc(N)cc4)CCC32)C1 (stereo not drawn) [21-(4′-aminophenylthio)-3α-hydroxy-3β-methoxymethyl-5α-pregnan-20-one]	150 to 156	127	89			

Reference: patent publication US6780853B1, “Neuroactive steroids of the androstane and pregnane series” (priority 1995, dated 2004)
